The experiment deals with MV-4-11 cells. Kind of experiment: Gene expression microarray analysis (Affymetrix PrimeView) and GSEA. The settings on record: ProbeSet 11744854_x_at; LIST B. The arrangement: RFU PODN (11730768_x_at) / Fold change /veh PODN (11730768_x_at) / RFU LINC00158 (11744669_a_at) / Fold change /veh LINC00158 (11744669_a_at) / RFU DUSP10 (11751237_a_at) / Fold change /veh DUSP10 (11751237_a_at) / RFU ID3 (11757404_x_at) / Fold change /veh ID3 (11757404_x_at) / RFU PLEKHG5 (11737974_s_at) / Fold change /veh PLEKHG5 (11737974_s_at) / RFU LRRC4B (11730491_at) / Fold change /veh LRRC4B (11730491_at) / RFU GIMAP4 (11747438_a_at) / Fold change /veh GIMAP4 (11747438_a_at) / RFU KRT8 (11758183_x_at) / Fold change /veh KRT8 (11758183_x_at) / RFU CNN1 (11734310_a_at) / Fold change /veh CNN1 (11734310_a_at) / RFU VPS37D (11726825_at) / Fold change /veh VPS37D (11726825_at) / RFU C10orf10 (11716522_x_at) / Fold change /veh C10orf10 (11716522_x_at) / RFU KIR2DL2 /// KIR2DL4 /// KIR2DL5A /// KIR2DL5B /// KIR2DS1 /// KIR2DS2 /// KIR2DS3 /// KIR2DS4 /// KIR3DL3 /// KIR3DL3 /// KIR3DS1 (11738374_at) / Fold change /veh KIR2DL2 /// KIR2DL4 /// KIR2DL5A /// KIR2DL5B /// KIR2DS1 /// KIR2DS2 /// KIR2DS3 /// KIR2DS4 /// KIR3DL3 /// KIR3DL3 /// KIR3DS1 (11738374_at) / RFU C1QL1 (11718748_at) / Fold change /veh C1QL1 (11718748_at) / RFU TMPRSS4 (11747572_a_at) / Fold change /veh TMPRSS4 (11747572_a_at) / RFU HAMP (11756126_x_at) / Fold change /veh HAMP (11756126_x_at) / RFU RNFT2 (11725882_a_at) / Fold change /veh RNFT2 (11725882_a_at) / RFU NR4A2 (11747474_a_at) / Fold change /veh NR4A2 (11747474_a_at) / RFU ABCC12 (11746883_a_at) / Fold change /veh ABCC12 (11746883_a_at) / RFU TMEM136 (11760407_x_at) / Fold change /veh TMEM136 (11760407_x_at) / RFU CLDN22 /// WWC2 (11732394_at) / Fold change /veh CLDN22 /// WWC2 (11732394_at) / RFU HLA-DPB1 (11760878_x_at) / Fold change /veh HLA-DPB1 (11760878_x_at) / RFU SPINT1 (11716480_a_at) / Fold change /veh SPINT1 (11716480_a_at) / RFU GAP43 (11754022_s_at) / Fold change /veh GAP43 (11754022_s_at) / RFU A4GNT (11735810_at) / Fold change /veh A4GNT (11735810_at) / RFU PRB3 (11715151_x_at) / Fold change /veh PRB3 (11715151_x_at) / RFU TUBB4B (11761932_at) / Fold change /veh TUBB4B (11761932_at) / RFU CAPN14 (11732068_a_at) / Fold change /veh CAPN14 (11732068_a_at) / RFU TMCC2 (11721928_a_at) / Fold change /veh TMCC2 (11721928_a_at) / RFU IRGQ (11745062_a_at) / Fold change /veh IRGQ (11745062_a_at) / RFU FAM174B (11720279_a_at) / Fold change /veh FAM174B (11720279_a_at) / RFU TMPRSS4 (11748680_a_at) / Fold change /veh TMPRSS4 (11748680_a_at) / RFU FAM212B (11763350_a_at) / Fold change /veh FAM212B (11763350_a_at) / RFU PLEKHG5 (11743358_a_at) / Fold change /veh PLEKHG5 (11743358_a_at) / RFU ZSCAN30 (11745921_a_at) / Fold change /veh ZSCAN30 (11745921_a_at) / RFU CMKLR1 (11741424_a_at) / Fold change /veh CMKLR1 (11741424_a_at) / RFU LOC101060620 /// MAPK8IP1 (11723275_at) / Fold change /veh LOC101060620 /// MAPK8IP1 (11723275_at) / RFU SPTSSB (11747773_x_at) / Fold change /veh SPTSSB (11747773_x_at) / RFU PRSS12 (11739890_at) / Fold change /veh PRSS12 (11739890_at) / RFU BIN1 (11741810_x_at) / Fold change /veh BIN1 (11741810_x_at) / RFU WNT11 (11732464_a_at) / Fold change /veh WNT11 (11732464_a_at) / RFU C10orf10 (11716521_a_at) / Fold change /veh C10orf10 (11716521_a_at) / RFU C5orf56 (11738089_at) / Fold change /veh C5orf56 (11738089_at) / RFU CYB561 (11721691_x_at) / Fold change /veh CYB561 (11721691_x_at) / RFU ANKRD19P (11752326_a_at) / Fold change /veh ANKRD19P (11752326_a_at) / RFU OR2T12 /// OR2T33 /// OR2T8 (11738714_s_at) / Fold change /veh OR2T12 /// OR2T33 /// OR2T8 (11738714_s_at) / RFU VCAN (11748164_a_at) / Fold change /veh VCAN (11748164_a_at) / RFU JSRP1 (11732532_at) / Fold change /veh JSRP1 (11732532_at) / RFU KRTAP10-11 (11738290_x_at) / Fold change /veh KRTAP10-11 (11738290_x_at) / RFU MYO3A (11730013_a_at) / Fold change /veh MYO3A (11730013_a_at) / RFU EBF3 (11725865_a_at) / Fold change /veh EBF3 (11725865_a_at) / RFU CAMK2N1 (11719241_x_at) / Fold change /veh CAMK2N1 (11719241_x_at) / RFU C5orf56 (11738088_a_at) / Fold change /veh C5orf56 (11738088_a_at) / RFU OLFML3 (11715873_a_at) / Fold change /veh OLFML3 (11715873_a_at) / RFU LOC100653217 /// NTM (11731650_a_at) / Fold change /veh LOC100653217 /// NTM (11731650_a_at) / RFU MAPK11 (11762145_a_at) / Fold change /veh MAPK11 (11762145_a_at) / RFU FIZ1 (11724087_x_at) / Fold change /veh FIZ1 (11724087_x_at) / RFU OASL (11726364_x_at) / Fold change /veh OASL (11726364_x_at) / RFU SOX15 (11748057_x_at) / Fold change /veh SOX15 (11748057_x_at) / RFU CD79A (11719716_a_at) / Fold change /veh CD79A (11719716_a_at) / RFU HIST1H1D (11736915_at) / Fold change /veh HIST1H1D (11736915_at) / RFU CASKIN2 (11723855_a_at) / Fold change /veh CASKIN2 (11723855_a_at) / RFU LOC730098 (11760151_x_at) / Fold change /veh LOC730098 (11760151_x_at) / RFU OR4N2 (11742367_at) / Fold change /veh OR4N2 (11742367_at) / RFU PRRT2 (11749266_a_at) / Fold change /veh PRRT2 (11749266_a_at) / RFU SNX32 (11753110_a_at) / Fold change /veh SNX32 (11753110_a_at) / RFU CDHR5 (11726645_a_at) / Fold change /veh CDHR5 (11726645_a_at) / RFU RCAN1 (11760418_a_at) / Fold change /veh RCAN1 (11760418_a_at) / RFU FAM167A (11723789_a_at) / Fold change /veh FAM167A (11723789_a_at) / RFU FAM26E (11764081_at) / Fold change /veh FAM26E (11764081_at) / RFU ISYNA1 (11749810_s_at) / Fold change /veh ISYNA1 (11749810_s_at) / RFU ACY1 (11761880_at) / Fold change /veh ACY1 (11761880_at) / RFU 11764098_at / Fold change /veh 11764098_at / RFU SAMD14 (11745864_x_at) / Fold change /veh SAMD14 (11745864_x_at) / RFU NPB (11741838_a_at) / Fold change /veh NPB (11741838_a_at) / RFU TMPRSS6 (11731388_a_at) / Fold change /veh TMPRSS6 (11731388_a_at) / RFU KRTAP10-2 (11738614_at) / Fold change /veh KRTAP10-2 (11738614_at) / RFU ARHGAP8 /// PRR5-ARHGAP8 (11727945_x_at) / Fold change /veh ARHGAP8 /// PRR5-ARHGAP8 (11727945_x_at) / RFU KRTAP5-7 /// NADSYN1 (11734609_at) / Fold change /veh KRTAP5-7 /// NADSYN1 (11734609_at) / RFU RASL12 (11751679_a_at) / Fold change /veh RASL12 (11751679_a_at) / RFU CDKN2B (11736163_a_at) / Fold change /veh CDKN2B (11736163_a_at) / RFU PRF1 (11729649_at) / Fold change /veh PRF1 (11729649_at) / RFU, ZNF638 /// ZNF638-IT1 / Fold change vs veh, ZNF638 /// ZNF638-IT1 / RFU, PANK3 / Fold change vs veh, PANK3 / RFU, SH3YL1 / Fold change vs veh, SH3YL1 / RFU, ZEB2 / Fold change vs veh, ZEB2 / RFU, NRIP1 / Fold change vs veh, NRIP1 / RFU, PTTG1IP / Fold change vs veh, PTTG1IP / RFU, CAPN2 / Fold change vs veh, CAPN2 / RFU, MED14 / Fold change vs veh, MED14 / RFU, SNORA58 / Fold change vs veh, SNORA58 / RFU, C1orf63 / Fold change vs veh, C1orf63 / RFU, LRRFIP1 / Fold change vs veh, LRRFIP1 / RFU, NDUFAF7 / Fold change vs veh, NDUFAF7 / RFU, SLC12A2 / Fold change vs veh, SLC12A2 / RFU, IBTK / Fold change vs veh, IBTK / RFU, ESF1 / Fold change vs veh, ESF1 / Fold change vs veh, TMEM50B / RFU, TAOK1 / Fold change vs veh, TAOK1 / RFU, ACBD3 / Fold change vs veh, ACBD3 / RFU, TMA16 / Fold change vs veh, TMA16 / RFU, RWDD3 / Fold change vs veh, RWDD3 / RFU, BCAT1 / Fold change vs veh, BCAT1 / RFU, EDEM3 / Fold change vs veh, EDEM3 / RFU, TMEM33 / Fold change vs veh, TMEM33 / RFU, WDR75 / Fold change vs veh, WDR75 / RFU, AHCTF1 / Fold change vs veh, AHCTF1 / RFU, TFRC / Fold change vs veh, TFRC / RFU, ZDHHC17 / Fold change vs veh, ZDHHC17 / RFU, NOM1 / Fold change vs veh, NOM1 / RFU, ARL8B / Fold change vs veh, ARL8B / RFU, ZBTB11 / Fold change vs veh, ZBTB11 / RFU, TAMM41 / Fold change vs veh, TAMM41 / RFU, KIAA1704 /// LOC100996395 / Fold change vs veh, KIAA1704 /// LOC100996395 / RFU, ING1 / Fold change vs veh, ING1 / RFU, TRMT61B / Fold change vs veh, TRMT61B / RFU, FUBP3 / Fold change vs veh, FUBP3 / RFU, TP53 / Fold change vs veh, TP53 / RFU, TNKS2 / Fold change vs veh, TNKS2 / RFU, ZFP14 / Fold change vs veh, ZFP14 / RFU, ACTR2 / Fold change vs veh, ACTR2 / RFU, PPP3R1 / Fold change vs veh, PPP3R1 / RFU, PIK3R1 / Fold change vs veh, PIK3R1 / RFU, HNRNPA1 / Fold change vs veh, HNRNPA1 / RFU, RNF170 / Fold change vs veh, RNF170 / RFU, ZNF28 / Fold change vs veh, ZNF28 / RFU, RNGTT / Fold change vs veh, RNGTT / RFU, OGT / Fold change vs veh, OGT / RFU, BRD1 / Fold change vs veh, BRD1 / RFU, MARS / Fold change vs veh, MARS / RFU, ZNF655 / Fold change vs veh, ZNF655 / RFU, FAHD1 / Fold change vs veh, FAHD1 / RFU, BDP1 / Fold change vs veh, BDP1 / RFU, LRRCC1 / Fold change vs veh, LRRCC1 / RFU, ARID1A / Fold change vs veh, ARID1A / RFU, ZNF146 / Fold change vs veh, ZNF146 / RFU, ZNF330 / Fold change vs veh, ZNF330 / RFU, GPN3 / Fold change vs veh, GPN3 / RFU, C9orf123 / Fold change vs veh, C9orf123 / RFU, N4BP2L2 / Fold change vs veh, N4BP2L2 / RFU, ARFIP1 / Fold change vs veh, ARFIP1 / RFU, FAM179B / Fold change vs veh, FAM179B / RFU, BCL10 / Fold change vs veh, BCL10 / RFU, UHRF1BP1L / Fold change vs veh, UHRF1BP1L / RFU, BET1 / Fold change vs veh, BET1 / RFU, CNOT2 / Fold change vs veh, CNOT2 / RFU, ZNF268 / Fold change vs veh, ZNF268 / Fold change vs veh, ZNF507 / RFU, DGCR2 / Fold change vs veh, DGCR2 / RFU, WDSUB1 / Fold change vs veh, WDSUB1 / Fold change vs veh, HSP90B1 /// MIR3652 / RFU, ADSS / Fold change vs veh, ADSS / RFU, GK / Fold change vs veh, GK / RFU, ZNF148 / Fold change vs veh, ZNF148 / RFU, TAF9 / Fold change vs veh, TAF9 / RFU, SLC1A5 / Fold change vs veh, SLC1A5 / RFU, SLMO2 / Fold change vs veh, SLMO2 / RFU, ABCC4 / Fold change vs veh, ABCC4 / RFU, LOC101060439 /// RAP1B / Fold change vs veh, LOC101060439 /// RAP1B / RFU, RFX7 / Fold change vs veh, RFX7 / RFU, GTPBP10 / Fold change vs veh, GTPBP10 / RFU, CNEP1R1 / Fold change vs veh, CNEP1R1 / RFU, BIVM-ERCC5 /// ERCC5 / Fold change vs veh, BIVM-ERCC5 /// ERCC5 / RFU, ILF3 / Fold change vs veh, ILF3 / RFU 11762660_at / Fold change /veh 11762660_at / RFU VCAN (11757783_s_at) / Fold change /veh VCAN (11757783_s_at) / RFU DDX43 (11728927_at) / Fold change /veh DDX43 (11728927_at) / RFU KRT8 (11758188_x_at) / Fold change /veh KRT8 (11758188_x_at) / RFU NKD1 (11759106_at) / Fold change /veh NKD1 (11759106_at) / RFU SRD5A1 (11742802_a_at) / Fold change /veh SRD5A1 (11742802_a_at) / RFU TPSAB1 /// TPSB2 (11721975_s_at) / Fold change /veh TPSAB1 /// TPSB2 (11721975_s_at) / RFU GSTM3 (11746129_a_at) / Fold change /veh GSTM3 (11746129_a_at) / RFU IL23R (11737362_x_at) / Fold change /veh IL23R (11737362_x_at) / RFU TMEM51 (11727254_a_at) / Fold change /veh TMEM51 (11727254_a_at) / RFU PIWIL2 (11732686_x_at) / Fold change /veh PIWIL2 (11732686_x_at) / RFU ORM1 (11744905_x_at) / Fold change /veh ORM1 (11744905_x_at) / RFU CCDC152 (11743942_at) / Fold change /veh CCDC152 (11743942_at) / RFU ECM1 (11717891_a_at) / Fold change /veh ECM1 (11717891_a_at) / RFU IL23R (11748794_a_at) / Fold change /veh IL23R (11748794_a_at) / RFU TNFAIP8L3 (11732012_x_at) / Fold change /veh TNFAIP8L3 (11732012_x_at) / RFU MBOAT4 (11741988_at) / Fold change /veh MBOAT4 (11741988_at) / RFU 11764193_at / Fold change /veh 11764193_at / RFU TMEM53 (11763286_at) / Fold change /veh TMEM53 (11763286_at) / RFU MAGEB2 (11727129_at) / Fold change /veh MAGEB2 (11727129_at) / RFU TMEM200A (11744735_a_at) / Fold change /veh TMEM200A (11744735_a_at) / RFU CCDC152 (11751479_a_at) / Fold change /veh CCDC152 (11751479_a_at) / RFU FAM211A (11726209_a_at) / Fold change /veh FAM211A (11726209_a_at) / RFU RGS16 (11746705_a_at) / Fold change /veh RGS16 (11746705_a_at) / RFU VCAN (11755009_s_at) / Fold change /veh VCAN (11755009_s_at) / RFU RHOB (11743442_s_at) / Fold change /veh RHOB (11743442_s_at) / RFU RGS16 (11720943_a_at) / Fold change /veh RGS16 (11720943_a_at) / RFU RGS16 (11720944_at) / Fold change /veh RGS16 (11720944_at) / RFU, VPS4B / Fold change vs veh, VPS4B / RFU, CREB1 / Fold change vs veh, CREB1 / RFU, DNAJC13 / Fold change vs veh, DNAJC13 / RFU, GNAQ / Fold change vs veh, GNAQ / RFU, CDK5R1 / Fold change vs veh, CDK5R1 / RFU, ZRANB3 / Fold change vs veh, ZRANB3 / RFU, CUL4A / Fold change vs veh, CUL4A / RFU, CCNY / Fold change vs veh, CCNY / RFU, UFL1 / Fold change vs veh, UFL1 / RFU, COG3 / Fold change vs veh, COG3 / RFU, DIAPH2 / Fold change vs veh, DIAPH2 / RFU, SKA2 / Fold change vs veh, SKA2 / RFU, AFF3 / Fold change vs veh, AFF3 / RFU, LMF1 / Fold change vs veh, LMF1 / RFU, IPO11 / Fold change vs veh, IPO11 / RFU, DFFB / Fold change vs veh, DFFB / RFU, FOXP1 / Fold change vs veh, FOXP1 / RFU, CARD8 / Fold change vs veh, CARD8 / RFU, STRN3 / Fold change vs veh, STRN3 / RFU, ADK / Fold change vs veh, ADK / RFU, RASSF2 / Fold change vs veh, RASSF2 / RFU, WIPF1 / Fold change vs veh, WIPF1 / RFU, LARP1B / Fold change vs veh, LARP1B / RFU, RASA1 / Fold change vs veh, RASA1 / RFU, RB1 / Fold change vs veh, RB1 / RFU, PPFIA1 / Fold change vs veh, PPFIA1 / RFU, MAT2A / Fold change vs veh, MAT2A / RFU, CCT5 / Fold change vs veh, CCT5 / RFU, WDR92 / Fold change vs veh, WDR92 / RFU, CUX1 / Fold change vs veh, CUX1 / RFU, TTC7A / Fold change vs veh, TTC7A / RFU, TMEM135 / Fold change vs veh, TMEM135 / RFU, DEPTOR / Fold change vs veh, DEPTOR / RFU, CPM / Fold change vs veh, CPM / RFU, DNAJB6 / Fold change vs veh, DNAJB6 / RFU, CACNA2D3 / Fold change vs veh, CACNA2D3 / RFU, DTX4 / Fold change vs veh, DTX4 / RFU, TFCP2 / Fold change vs veh, TFCP2 / RFU, GMCL1 /// GMCL1P1 / Fold change vs veh, GMCL1 /// GMCL1P1 / RFU, AEBP2 / Fold change vs veh, AEBP2 / RFU, SNHG1 /// SNORD22 /// SNORD25 /// SNORD26 /// SNORD27 /// SNORD28 /// SNORD29 /// SNORD31 / Fold change vs veh, SNHG1 /// SNORD22 /// SNORD25 /// SNORD26 /// SNORD27 /// SNORD28 /// SNORD29 /// SNORD31 / Fold change (Aza/veh), C12orf56 (ProbeSet 11735607_a_at) / Fold change (ACY-1035/veh), C12orf56 (ProbeSet 11735607_a_at) / Fold change (Aza/veh), FGFR1OP (ProbeSet 11751329_s_at) / Fold change (ACY-1035/veh), FGFR1OP (ProbeSet 11751329_s_at) / Fold change (Aza/veh), VPS36 (ProbeSet 11739960_a_at) / Fold change (ACY-1035/veh), VPS36 (ProbeSet 11739960_a_at) / RFU SYPL1 (11715823_x_at) / Fold change /veh SYPL1 (11715823_x_at) / RFU IGFBP7 (11715501_s_at) / Fold change /veh IGFBP7 (11715501_s_at) / RFU REEP3 (11722064_at) / Fold change /veh REEP3 (11722064_at) / RFU IGLL1 (11728026_x_at) / Fold change /veh IGLL1 (11728026_x_at): dose or concentration left out as unconfirmed. Format: cell-based, human.

Turning to `Nc1ncn([C@@H]2O[C@H](CO)[C@@H](O)[C@H]2O)c(=O)n1` [azacitidine], the “Fold change vs veh, ZNF28” value was determined as 0.91.

The record behind these values is PMC5218480 (PLoS ONE, 2017).
